The assay deals with L1210 leukemia ip in BDF1 mice, survival T/C. Description: NCI In Vivo Anticancer Drug Screen. Data for tumor model L1210 Leukemia (intraperitoneal) in B6D2F1 (BDF1) mice. The settings on record: endpoint: mean survival time, higher = longer survival. The method in brief: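 Tumor cells were implanted, animals were treated, and survival was followed. The result divides the treated measurement by the vehicle-control measurement.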

Where [1] appears, read: dose: 100.0 mg/kg/injection, schedule: Q01DX001 (ip), vehicle: saline.
The mark [2] stands for this setting: dose: 200.0 mg/kg/injection, schedule: Q01DX001 (ip), vehicle: saline.
Where [3] appears, read: dose: 100.0 mg/kg/injection, schedule: Q01DX001 (ip), vehicle: carboxymethylcellulose (CMC).
The mark [4] stands for this setting: dose: 200.0 mg/kg/injection, schedule: Q01DX001 (ip), vehicle: carboxymethylcellulose (CMC).
[5] abbreviates: dose: 400.0 mg/kg/injection, schedule: Q01DX001 (ip), vehicle: carboxymethylcellulose (CMC).
Setting [6] is: dose: 100.0 mg/kg/injection, schedule: Q04DX003 (ip), vehicle: saline.
[7] abbreviates: dose: 200.0 mg/kg/injection, schedule: Q04DX003 (ip), vehicle: saline.
The mark [8] stands for this setting: dose: 400.0 mg/kg/injection, schedule: Q04DX003 (ip), vehicle: saline.
The mark [9] stands for this setting: dose: 100.0 mg/kg/injection, schedule: Q04DX003 (ip), vehicle: saline with Tween-80.
Setting [10] is: dose: 200.0 mg/kg/injection, schedule: Q04DX003 (ip), vehicle: saline with Tween-80.
The mark [11] stands for this setting: dose: 400.0 mg/kg/injection, schedule: Q04DX003 (ip), vehicle: saline with Tween-80.
Setting [12] is: dose: 100.0 mg/kg/injection, schedule: Q01DX009 (ip), vehicle: saline.
The mark [13] stands for this setting: dose: 200.0 mg/kg/injection, schedule: Q01DX009 (ip), vehicle: saline.
Where [14] appears, read: dose: 400.0 mg/kg/injection, schedule: Q01DX009 (ip), vehicle: saline.

Where “and” joins values, the source holds several entries; their conditions need not be identical. Equal values may be shown once. Inconclusive results and toxic doses are left out.

With `O=C1CCCC2C1CCC1C3CCC(O)CC3CCC21` (centres undefined), the T/C is 91 % of control (dose: 100.0 mg/kg/injection, schedule: Q01DX001 (sc), vehicle: steriod suspending solution); 93 % of control (dose: 200.0 mg/kg/injection, schedule: Q01DX001 (sc), vehicle: steriod suspending solution); 95 % of control (dose: 400.0 mg/kg/injection, schedule: Q01DX001 (sc), vehicle: steriod suspending solution).
With `Cn1c(=O)n(OS(=O)(=O)c2ccccc2)c(=O)c2ccccc21`, the T/C is, setting by setting: (dose: 100.0 mg/kg/injection, schedule: Q01DX009 (ip), vehicle: other) 107 % of control; (dose: 200.0 mg/kg/injection, schedule: Q01DX009 (ip), vehicle: other) 96 % of control; (dose: 400.0 mg/kg/injection, schedule: Q01DX009 (ip), vehicle: other) 98 % of control.
For the compound `CC(=O)Oc1ccc(Cl)cc1C=O`, the T/C under setting [1] is 105 % of control and the T/C under setting [2] is 103 % of control.
For the compound `O=C(Nc1cccc(Cl)c1)Nc1cc(C(F)(F)F)ccc1Cl`, the T/C by setting is: (dose: 50.0 mg/kg/injection, schedule: Q01DX001 (ip), vehicle: carboxymethylcellulose (CMC)) 96 % of control; under setting [3], 100 % of control; under setting [4], 91 % of control; under setting [5], 100 % of control.
With `Nc1nc2c(ncn2CCC(N)C(=O)O)c(=O)[nH]1` (centres undefined), the T/C reads like this: under setting [6], 104 % of control; under setting [7], 98 % of control; under setting [8], 107 % of control.
Regarding `CCCCOC(=O)c1ccc(NC(=O)Nc2cc(Cl)ccc2OC)cc1`, the T/C (dose: 100.0 mg/kg/injection, schedule: Q01DX009 (ip), vehicle: Klucel (hydroxypropylcellulose) (HPC)) is 98 % of control; the T/C (dose: 200.0 mg/kg/injection, schedule: Q01DX009 (ip), vehicle: Klucel (hydroxypropylcellulose) (HPC)) is 98 % of control; the T/C (dose: 400.0 mg/kg/injection, schedule: Q01DX009 (ip), vehicle: Klucel (hydroxypropylcellulose) (HPC)) is 90 % of control.
As to `CC1CCN(C(=O)CCCCl)CC1`, the T/C reads like this: (dose: 100.0 mg/kg/injection, schedule: Q04DX002 (ip), vehicle: saline) 104 % of control; (dose: 200.0 mg/kg/injection, schedule: Q04DX002 (ip), vehicle: saline) 114 % of control.
`Cc1cc(=O)c2cc(Cl)cc(Br)c2[nH]1`: the T/C under setting [1] was 94 % of control; the T/C under setting [2] is 96 % of control; the T/C (dose: 400.0 mg/kg/injection, schedule: Q01DX001 (ip), vehicle: saline) is 103 % of control.
Consider `O=S1(=O)CCCC1C(O)(c1ccccc1)c1ccccc1` (centres undefined), for which the T/C is, setting by setting: under setting [9], 97 % of control; under setting [10], 92 % of control; under setting [11], 94 % of control.
With `CN(C(=O)N(CCCl)N=O)C1CCC(C(=O)O)CC1` (centres undefined), the T/C is, setting by setting: (dose: 12.0 mg/kg/injection, schedule: Q01DX009 (ip), vehicle: alkali diluted with saline) 95 % of control; (dose: 18.0 mg/kg/injection, schedule: Q01DX009 (ip), vehicle: alkali diluted with saline) 103 % of control; (dose: 24.0 mg/kg/injection, schedule: Q01DX001 (ip), vehicle: saline + Tween-80 + alkali) 93 % of control; (dose: 26.0 mg/kg/injection, schedule: Q01DX009 (ip), vehicle: alkali diluted with saline) 103 % of control; (dose: 36.0 mg/kg/injection, schedule: Q01DX001 (ip), vehicle: saline + Tween-80 + alkali) 98 % of control; (dose: 40.0 mg/kg/injection, schedule: Q01DX009 (ip), vehicle: alkali diluted with saline) 111 % of control. The T/C is, setting by setting: (dose: 54.0 mg/kg/injection, schedule: Q01DX001 (ip), vehicle: saline + Tween-80 + alkali) 98 % of control; (dose: 60.0 mg/kg/injection, schedule: Q01DX009 (ip), vehicle: alkali diluted with saline) 119 % of control; (dose: 80.0 mg/kg/injection, schedule: Q01DX001 (ip), vehicle: saline + Tween-80 + alkali) 104 % of control; (dose: 120.0 mg/kg/injection, schedule: Q01DX001 (ip), vehicle: saline + Tween-80 + alkali) 113 % of control; (dose: 180.0 mg/kg/injection, schedule: Q01DX001 (ip), vehicle: saline + Tween-80 + alkali) 121 % of control; (dose: 400.0 mg/kg/injection, schedule: Q01DX001 (ip), vehicle: saline + Tween-80 + alkali) 180 % of control.
Consider `O=C(O)c1ccc(S(=O)(=O)O)cc1`, for which the T/C by setting is: under setting [12], 100 % of control; under setting [13], 97 % of control; under setting [14], 101 % of control.
Consider `C(=N/Nc1ccccn1)/c1cccnc1`, for which the T/C (dose: 100.0 mg/kg/injection, schedule: Q01DX001 (ip), vehicle: saline with Tween-80) is 112 % of control.
`CCNc1nc(C)c2nc(C(=O)NCc3ccccc3)c(=O)n(CC)c2n1`: the T/C reads like this: (dose: 100.0 mg/kg/injection, schedule: Q01DX001 (ip), vehicle: Klucel (hydroxypropylcellulose) (HPC)) 94 % of control; (dose: 200.0 mg/kg/injection, schedule: Q01DX001 (ip), vehicle: Klucel (hydroxypropylcellulose) (HPC)) 94 % of control.
In the case of `O=c1[nH]cnc2c(Cl)c(C(Cl)(Cl)Cl)nn12` (tested in a mixture with another compound), the T/C was 97 % of control (dose: 100.0 mg/kg/injection, schedule: Q01DX009 (ip), vehicle: saline with Tween-80); 104 % of control under setting [9]; 92 % of control (dose: 200.0 mg/kg/injection, schedule: Q01DX009 (ip), vehicle: saline with Tween-80); 98 % of control under setting [10]; 97 % of control (dose: 400.0 mg/kg/injection, schedule: Q01DX009 (ip), vehicle: saline with Tween-80); 97 % of control under setting [11].
`COc1cc(/C=N/NC(=O)c2cccc([N+](=O)[O-])c2)ccc1O`: the T/C under setting [3] was 98 % of control; the T/C (dose: 100.0 mg/kg/injection, schedule: Q01DX009 (ip), vehicle: carboxymethylcellulose (CMC)) was 97 % of control and 107 % of control; the T/C (dose: 100.0 mg/kg/injection, schedule: Q04DX002 (ip), vehicle: carboxymethylcellulose (CMC)) is 101 % of control and 108 % of control; the T/C under setting [4] is 96 % of control; the T/C (dose: 200.0 mg/kg/injection, schedule: Q01DX009 (ip), vehicle: carboxymethylcellulose (CMC)) was 93 % of control and 103 % of control; the T/C (dose: 200.0 mg/kg/injection, schedule: Q04DX002 (ip), vehicle: carboxymethylcellulose (CMC)) is 101 % of control and 104 % of control. The T/C reads like this: under setting [5], 91 % of control; (dose: 400.0 mg/kg/injection, schedule: Q01DX009 (ip), vehicle: carboxymethylcellulose (CMC)) 97 % of control and 100 % of control; (dose: 400.0 mg/kg/injection, schedule: Q04DX002 (ip), vehicle: carboxymethylcellulose (CMC)) 104 % of control and 105 % of control.
Consider `C/C=C/C[P+](c1ccccc1)(c1ccccc1)c1ccccc1`, for which the T/C runs as follows: (dose: 3.13 mg/kg/injection, schedule: Q01DX009 (ip), vehicle: saline) 98 % of control; (dose: 6.25 mg/kg/injection, schedule: Q01DX009 (ip), vehicle: saline) 110 % of control; (dose: 12.5 mg/kg/injection, schedule: Q01DX009 (ip), vehicle: saline with Tween-80) 106 % of control; (dose: 12.5 mg/kg/injection, schedule: Q01DX009 (ip), vehicle: saline) 98 % of control; (dose: 15.0 mg/kg/injection, schedule: Q01DX001 (ip), vehicle: saline) 101 % of control; (dose: 30.0 mg/kg/injection, schedule: Q01DX001 (ip), vehicle: saline) 114 % of control.
For the compound `COC(=O)C1=C(C)NC(=S)NC1c1ccco1` (centres undefined), the T/C runs as follows: under setting [9], 95 % of control; under setting [10], 97 % of control; under setting [11], 97 % of control.
Consider `COC(=O)c1ccc(C(=O)OC)[n+]([O-])c1`, for which the T/C is 102 % of control under setting [12]; 103 % of control under setting [6]; 106 % of control under setting [13]; 108 % of control under setting [7]; 93 % of control (dose: 266.0 mg/kg/injection, schedule: Q04DX003 (ip), vehicle: saline); 106 % of control under setting [14]. In addition, the T/C is 101 % of control under setting [8] and 90 % of control (dose: 600.0 mg/kg/injection, schedule: Q04DX003 (ip), vehicle: saline).
Take `CCOC(/C=C(\C)C(C)=O)OCC`: the T/C is, setting by setting: under setting [6], 97 % of control; under setting [7], 98 % of control; under setting [8], 95 % of control.

Source of the values: PubChem BioAssay AID248 (DTP/NCI, 2004).
